Measured values: patent publication US8461185B2, “P2X3 receptor antagonists for treatment of pain” (Merck Sharp & Dohme Corp., priority 2007, dated 2013)
pIC50: −log10 of the molar value.

Target: T1, human P2X3 (Homo sapiens, UniProt P56373)
T1 construct: expressed in transfected cells
T1 sequence (P56373 1-397): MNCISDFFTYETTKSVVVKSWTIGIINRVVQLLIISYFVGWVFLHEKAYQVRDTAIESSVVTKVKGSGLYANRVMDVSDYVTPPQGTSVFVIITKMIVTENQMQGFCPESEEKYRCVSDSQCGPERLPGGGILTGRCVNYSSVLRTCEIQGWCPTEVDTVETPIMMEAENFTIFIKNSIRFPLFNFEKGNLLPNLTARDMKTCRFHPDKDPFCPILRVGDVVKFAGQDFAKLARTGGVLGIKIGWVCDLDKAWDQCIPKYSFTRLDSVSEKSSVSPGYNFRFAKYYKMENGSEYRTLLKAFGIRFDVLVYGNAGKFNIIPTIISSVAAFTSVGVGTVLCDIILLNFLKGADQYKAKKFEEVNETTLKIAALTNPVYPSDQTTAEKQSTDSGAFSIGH
Test: Intracellular Calcium Measurement to Assess Antagonist Affinity (FLIPR, Fluo-4, agonist α,β-meATP)
Assay type: cell-based
Settings: Intracellular Calcium Measurement to Assess Antagonist Affinity assay; [α,β-meATP]final=EC50
Source text: Generation of a Human P2X3 and P2X2/3 Stable Cell Line—Human P2X3 receptor cDNA (Accession number NM_002559) was subcloned as a 5′XhoI and 3′HindIII fragment into the expression vector pcDNA5/FRT (Invitrogen). Human P2X2 receptor cDNA (Accession number NM_174873) was subcloned as a 5′EcoRI and 3′NotI fragment into the expression vector pIRESneo2 (BD Biosciences Clontech). The human P2X3 expression construct was transfected using Lipofectamine 2000 (Invitrogen) into Flp-in—293 cells (Invitrogen) according to the manufacturer's directions. Cells positive for flp-mediated recombination of […] P2X3 were selected using 150 μg/ml hygromycin. The stable human P2X3 cell line was co-transfected with the human P2X2 expression construct using Lipofectamine 2000 as above and co-transfected cells selected using […] hygromycin and 1 mg/ml G418. The stable P2X3 cell line was propagated in DMEM, 10% FBS, 100 μg/ml hygromycin, and 100 units/ml penicillin and 100 μg/ml streptomycin, and maintained at 37° and 95% humidity. The stable P2X2/3 cell line was propagated as above with the addition of 500 μg/ml G418.
Intracellular Calcium Measurement to Assess Antagonist Affinity—A fluorescent imaging plate reader (FLIPR; Molecular Devices) was used to monitor intracellular calcium levels using the calcium-chelating dye Fluo-4 (Molecular Probes). The excitation and emission wavelengths used to monitor fluorescence were 488 nm and 530 nm, respectively. Cells expressing either human P2X3 or human P2X2/3 were plated at a density of 20,000 cells/well (20 μl/well) in 384-well black-walled plates approximately 20 hours before beginning the assay. On the day of the assay 20 μl of loading buffer (Hank's balanced salt solution, 2.5 mM CaCl2, 20 mM HEPES, 0.1% BSA, 2.5 mM probenecid, TR-40, Fluo-4, and 138 mM NMDG substituted for NaCl) is added and cells dye-loaded for […] in the dark at room temperature. Ten minutes prior to adding agonist, the antagonist was added in a volume of 10 μl and allowed to incubate at room temperature. During this period fluorescence data is collected at 3 sec intervals followed by 10 sec intervals. The agonist, α,β-meATP, is added at a 6× concentration ([α,β-meATP]final=EC50). Following agonist addition fluorescence was measured at 5 sec intervals and analyzed based on the increase in peak relative fluorescence units (RFU) compared to the basal fluorescence. Peak fluorescence was used to determine the inhibitory effect at each concentration of antagonist by the following equation: % Inhibition=100*(1−((RFU(drug)−RFU(control))/(RFU(DMSO only)−RFU(control))))

pIC50	Structure (SMILES)
6.96	C[C@@H](NC(=O)c1cc(C2=NO[C@H](c3ccccn3)C2)cc(-c2ccc(Cl)cn2)c1)c1ccc(F)cn1 [3-(5-chloropyridin-2-yl)-N-[(1R)-1-(5-fluoropyridin-2-yl)ethyl]-5-[(5S)-5-pyridin-2-yl-4,5-dihydroisoxazol-3-yl]benzamide]
8.00	Cc1ccc(-c2cc(C(=O)N[C@H](C)c3ccc(C(F)(F)F)nc3)cc(C3=NO[C@H](c4ccccn4)C3)c2)nc1 [3-(5-methylpyridin-2-yl)-5-[(5S)-5-pyridin-2-yl-4,5-dihydroisoxazol-3-yl]-N-{(1R)-1-[6-(trifluoromethyl)pyridin-3-yl]ethyl}benzamide]
7.24	Cc1ccc(-c2cc(C(=O)N[C@H](C)c3ncc(F)cc3F)cc(C3=NOC4(CCC4)C3)c2)nc1 [N-[(1R)-1-(3,5-difluoropyridin-2-yl)ethyl]-3-(5-methylpyridin-2-yl)-5-(5-oxa-6-azaspiro[3.4]oct-6-en-7-yl)benzamide]
7.70	Cc1ccc(-c2cc(C(=O)N[C@H](C)c3ccc(F)cn3)cc(C3=NO[C@H](c4ccccn4)C3)c2)nc1 [N-[(1R)-1-(5-fluoropyridin-2-yl)ethyl]-3-(5-methylpyridin-2-yl)-5-[(5S)-5-pyridin-2-yl-4,5-dihydroisoxazol-3-yl]benzamide]
